Measurements reported in publication PMC11083148, “Structure–Activity Relationship Studies on Highly Functionalized Pyrazole Hydrazones and Amides as Antiproliferative and Antioxidant Agents” (International Journal of Molecular Sciences, 2024).
Blank lines part the entries; values can stand above or below the compound they belong to.

Key:
[1] = set-up: method as in PMID 32932211; details: ABTS scavenging assay; cited from earlier work
[2] = system: GM-6114; test: MTT assay, cytotoxicity on normal fibroblasts; assay type: cell-based; details: human, 48 h, 10 µM
Procedure: Pyrazole acylhydrazones 10–13 and amides 14–22 were tested by MTT assay to evaluate their antiproliferative and cytotoxicity properties against a panel of eight tumor cell lines and normal fibroblasts.
The following cell lines were used for MTT assays: SKOV-3 (ovarian adenocarcinoma, ATCC, Manassas, VA, USA); MCF-7 (breast adenocarcinoma, Biologic Bank and Cell Factory, IRCCS Policlinico San Martino, Genoa, Italy); Hep-G2 (hepatocellular carcinoma, ATCC, Manassas, VA, USA); SK-MEL28 (skin melanoma, Biologic Bank and Cell Factory, IRCCS Policlinico San Martino, Genoa, Italy), GM-6114 (embryonic human fibroblast, ATCC, Manassas, VA, USA); MDA-MB231 (breast adenocarcinoma, Biologic Bank and Cell Factory, IRCCS Policlinico San Martino, Genoa, Italy); HeLa (cervical adenocarcinoma, Biologic Bank and Cell Factory, IRCCS Policlinico San Martino, Genoa, Italy); SK-BR3 (breast andenocarcinoma, Biologic Bank and Cell Factory, IRCCS Policlinico San Martino, Genoa, Italy); A549 (lung carcinoma, Biologic Bank and Cell Factory, IRCCS Policlinico San Martino, Genoa, Italy); HUVEC (Human Umbilical Vein Endothelial Cells, ATCC, Manassas, VA, USA). All cell lines were grown in their medium with 10% FBS, 2 mM Glutamine, and 1% penstrep and incubated at 37 °C in 5% CO2 in a humidified environment. The cell lines were plated in 96-well plates at an adequate number to reach 80–90% confluence at the end of the assay. 16 h after cell plating, a 10 mM DMSO stock solution of the compounds was diluted in growth medium and added at a final working concentration of 10 μM. After 48h of incubation, a 2 mg/mL PBS solution of MTT (3-(4,5-dimethyl-2-thiazolyl)-2,5-diphenyl-2H-tetrazolium bromide) was added (30 μL/well). After 4h, the supernatant was removed, and the Formazan precipitates were dissolved in DMSO (100 μL/well). The 96-well plates were incubated for 20 min, and absorbance was measured at 570 nm using a plate reader. The results are expressed as a percentage ratio over control samples (100%) in which the cells were incubated with the same amount of DMSO but without compounds. Each value is the mean of three independent experiments run in six replicates.

[3] = system: washed platelets; test: Platelet aggregation (thrombin-induced, Born's method); assay type: cell-based; details: Homo sapiens, 0.1 U/mL thrombin, mean ± SD, read-out: IC50 Aggregation inhibition
Method in brief: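 Washed human platelets (3.0 × 10^8/mL) were preincubated with compound at 37 °C for 3 min. Aggregation was then triggered with 0.1 U/mL thrombin and measured by Born's turbidimetric method, with IC50 values calculated from the response.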

[4] = system: SKOV3; test: MTT assay, antiproliferative activity; assay type: cell-based; details: Homo sapiens, SK-OV-3, 10 µM, 48h
[5] = system: HeLa; test: MTT assay, antiproliferative activity; assay type: cell-based; details: Homo sapiens, 10 µM, 48h, read-out: Mean Growth Percentage
[6] = system: MCF7; test: MTT assay, antiproliferative activity; assay type: cell-based; details: Homo sapiens, 10 µM, 48h
[7] = system: SKMEL28; test: MTT assay, antiproliferative activity; assay type: cell-based; details: Homo sapiens, SK-MEL-28, 10 µM, 48h
[8] = system: washed platelets; test: ROS assay in platelets (DCFH-DA, thrombin-stimulated); assay type: cell-based, human; details: Homo sapiens, Platelet, 0.1 U/mL thrombin, mean ± SD, read-out: IC50 ROS production inhibition
Method in brief: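 Washed human platelets (1.0 × 10^8/mL) in pH 7.4 HEPES buffer were pre-incubated 15 min at 37 °C with compound, then stimulated with 0.1 U/mL thrombin. ROS was read as DCF fluorescence from DCFH-DA by flow cytometry. IC50 comes from three-point concentration-response nonlinear regression versus saline control, mean of six experiments.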

[9] = DPPH radical-scavenging activity; assay type: physicochemical; set-up: AA (%), percentage of antioxidant activity: concentration or dose not given beside the values; details: mean ± SD, n = 2
Procedure: The antioxidant activity of the representative compounds of the two series (namely, acylhydrazones 10b, 11a, 11d, 12d, 13d, and amides 14, 22) was measured in vitro using the 2,2-diphenyl-1-picrylhydrazyl (DPPH) assay. The results were calculated as Trolox equivalent and expressed as a percentage of antioxidant activity (AA) (Table 3). […] Derivatives 10b and 12d were endowed with the highest antioxidant activity, thus highlighting the relevance of both pyrazole N1 and acylhydrazone substituents on compounds’ radical scavenging properties.
Compounds 10b, 11a, 11d, 12d, 13d, 14, and 22 (ca. 3 mg) were dissolved in DMSO (1 mL), and then 100 µL of this solution was mixed with 3.9 mL of DPPH methanol solution (65 µM). Absorbance was measured at 517 nm after reacting for 30 min in the dark. The linear calibration curve was obtained using Trolox standards (ranging between 20 and 200 mg/L, R^2 = 0.9955). The result was calculated as Trolox equivalent in mg/L, and the percentage of antioxidant activity (AA%) was calculated from the ratio of decreasing absorbance of sample solution (A0 − As) to absorbance of blank DPPH solution (A0), as expressed in Equation (1). (1) AA%=A0−As/A0×100
All analyses were carried out in duplicate (n = 2), and values are given as means ± standard deviation (SD).

[10] = system: A549; test: MTT assay, antiproliferative activity; assay type: cell-based; details: Homo sapiens, 48h, read-out: Mean Growth Percentage
Method in brief: (§1)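 Cells plated 16 h, then exposed to compounds at 10 μM final for 48 h at 37 °C, 5% CO2. MTT added for 4 h, formazan dissolved in DMSO, absorbance read at 570 nm; values as percent of DMSO-only control, mean of three experiments in six replicates.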

[11] = system: Hep-G2; test: MTT assay, antiproliferative activity; assay type: cell-based; details: Homo sapiens, HepG2, 48h
Method in brief: as §1

[12] = system: SK-BR3; test: MTT assay, antiproliferative activity; assay type: cell-based; details: Homo sapiens, SK-BR-3, 48h
Method in brief: as §1

[13] = system: MDA-MB231; test: MTT assay, antiproliferative activity; assay type: cell-based; details: Homo sapiens, MDA-MB-231, 48h
Method in brief: as §1

Structure (SMILES): Nc1c(C(F)(F)F)n[nH]c1-c1cccs1 [IIb]
IC50 [1]: 17.6 µM
Trolox equivalent antioxidant capacity (TEAC) [1]: 1.10

Structure (SMILES): Nc1c(C(F)(F)F)n[nH]c1-c1ccccc1 [IIa]
IC50 [1]: 14.1 µM
Trolox equivalent antioxidant capacity (TEAC) [1]: 1.35

IC50 [3]: 437 ± 25 µM
IC50 [8]: 405 ± 29 µM
melting point: 170 to 173 °C
Structure (SMILES): COc1ccc(/C=N/NC(=O)c2c(Nc3ccccc3)nn(CC(O)c3ccccc3)c2N)cc1OCc1ccccc1 (stereo not drawn) [13d, (E)-5-amino-N′-(3-(benzyloxy)-4-methoxybenzylidene)-1-(2-hydroxy-2-phenylethyl)-3-(phenylamino)-1H-pyrazole-4-carbohydrazide]
Mean Growth Percentage [2]: 95.39%
Mean growth percentage at 10 µM [4]: 112%
activity at 10 µM [5]: 96.7%
mean growth percentage (cell growth remaining vs control) at 10 µM [6]: 108%
Mean growth percentage at 10 µM [7]: 93.9%
AA (%), percentage of antioxidant activity [9]: 56.29 ± 1.18%
DPPH (%) [9]: 43.71 ± 1.18%
activity at 10 µM [10]: 90.4%
Mean growth percentage at 10 µM [11]: 120%
Mean growth percentage at 10 µM [12]: 97.9%
Mean growth percentage at 10 µM [13]: 93.8%
